Data on 42 compounds can be found in US7049331B2, “1,2,4-thiadiazole derivatives as melanocortin receptor modulators” (Ortho-McNeil Pharmaceutical, Inc., priority 2001, dated 2006).

Test [1] deals with T1, melanocortin MC-4 receptor (Homo sapiens, UniProt P32245).
T1 construct: purchased Receptor Biology Inc
Kind of test: Melanocortin MC-4 Receptor Binding Assay (SPA). On the procedure: Melanocortin MC-4 Receptor Binding Assay Melanocortin [MC-4]-membrane [purchased from Receptor Biology Inc] was coupled to wheat germ agglutinin coated polyvinyl toluene-Scintillation Proximity Assay beads [purchased from Amersham Pharmacia Inc.] for 30 min at 25° C. Into each well of a 96-well Opti plate [purchased from Packard, Calif.], 2.5 μg of membrane and 0.25 mg of beads were mixed in a volume of 100 μL media. […] Test compounds (1.5 μL) at 1 mM in 30% DMSO-50 mM HEPES, pH 7.4 buffer was added to separate wells on the plate. Radioactive ligand ^125I-NDP-melanocyte stimulating hormone [NEN, 2000Ci/mmol] was added to each well (48.5 μL per well, 40 pM final concentration). The plate was then sealed and let stand for 16 hr at 25° C. NDP-Melanocyte stimulating hormone peptide and α-melanocyte stimulating hormone peptide [purchased from Palomar Research Inc, 1 μM] were used as reference inhibitor compounds to define non-specific binding (N). Total binding (T) was defined using 30% DMSO-50 mM HEPES, pH 7.4 buffer. Bound radioactivity for each well (Y), measured at counts per minute (cpm) was measured in a TopCount [Packard, Calif.]. Percent inhibition was calculated as: […] The procedures described above for the melanocortin MC-4 receptor were repeated for the melanocortin MC-3 receptor. Following the procedures described, representative compounds of the present invention were tested for binding in the MC-4 and/or MC-3 assay, as listed in Table 4.

The subject of test [2] is Cortical Cells. Briefly: Neurite Cell Outgrowth Assay, cortical cells. The format is cell-based. The settings on record: Rattus norvegicus; 50 nM; percent change over the vehicle response; NA = no change/not active. From the text: (§1) Dissociated hippocampal and cortical cell cultures were established from embryonic day 18 rat fetuses as described by Mattson, M. P., Barger, S. W., Begley, J, and Mark, R. J., Methods Cell Biol., 1994, 46:[…]. Briefly, fetuses were removed via cesarean section from pregnant moms (Sprague-Dawley) and anesthetized with halothane according to the AVMA Panel on Euthanasia. Pups were decapitated and the brains were removed and placed in HEPES-buffered Hank's Balanced Salt solution (HBSS; Gibco). The hippocampi and cortices were dissected out and pooled according to tissue-type. Tissue was trypsinized for 15 min (1 mg/ml trypsin-HBSS; Worthington), rinsed with fresh HBSS, incubated in trypsin inhibitor (1 mg/ml; Sigma) for 5 min, rinsed again with fresh HBSS and then triturated in 1 ml fresh HBSS with a fire-polished glass pipette. Dissociated cells were seeded at 30,000 cells/well onto poly-D-lysine coated 96-well plates (Collaborative BioScience). Each well contained 100 μl of Eagle's Minimal Essential Media (MEM; Gibco) supplemented with 26 mM NaHCO3 (Sigma), 56 mM glucose (Sigma), 15 mM KCl (Sigma), 1 mM sodium pyruvate (Sigma), 1.1 mM L-glutamine (Sigma), 10% (v/v) heat-inactivated fetal bovine serum (Hyclone), and 0.001% gentamicin sulfate (Sigma) (pH 7.4). Cells were allowed to attach for 24 h in a humidified 37° C. 5% CO2 incubator before experimental treatment. The culture media was aspirated and exchanged with fresh media every 3 days.
(§2) Twenty-four hours after plating, cultures were treated with vehicle (PBS+0.1% BSA), alpha-melanocyte stimulating hormone (α-MSH) or test compound (diluted in DPBS). Each treatment condition was run in quadruplicate. On the third day in culture, the media was aspirated off and replaced with fresh media and test compound. At one week in culture, the cells were fixed with 10% phosphate-buffered formalin for 15 min, then rinsed with DPBS (Sigma) and placed in blocking serum for 30 min (horse serum; 1:50 dilution in DPBS; Vector Labs). The cultures were rinsed again with DPBS and then incubated in primary antibody for 2 hr (microtubule-associated protein-2 (MAP-2) is a selective marker for dendritic processes; anti-mouse monoclonal (Chemicon); 1:1000 dilution of MAP-2 in antibody diluent (Zymed)). Negative control wells were incubated in antibody diluent alone. Background signal was determined by blank wells (cell-free) incubated with or without antibody. Cultures were rinsed again with DPBS and then placed in fluorescein for 1 hr (FITC; anti-mouse IgG; rat adsorbed; 1:50 dilution in DPBS; Vector Labs). Cultures were rinsed a final time with DPBS and the plates were then read on a Cytofluor 4000 fluorescence plate reader. Neurite outgrowth was expressed as percent change from control (vehicle).
(§3) The data are expressed as percent change over the vehicle response. All compounds were screened at 50 nM. The abbreviation NA indicates no change/not active; the abbreviation ND indicates a compound not tested/response not determined.

The test system of test [3] is Hippocampal Cells. Briefly: Neurite Cell Outgrowth Assay, hippocampal cells. It is filed as cell-based. The settings on record: Rattus norvegicus; 50 nM; percent change over the vehicle response; NA = no change/not active.
Source text: as §1, §2, §3

T1 sequence (P32245 whole entry): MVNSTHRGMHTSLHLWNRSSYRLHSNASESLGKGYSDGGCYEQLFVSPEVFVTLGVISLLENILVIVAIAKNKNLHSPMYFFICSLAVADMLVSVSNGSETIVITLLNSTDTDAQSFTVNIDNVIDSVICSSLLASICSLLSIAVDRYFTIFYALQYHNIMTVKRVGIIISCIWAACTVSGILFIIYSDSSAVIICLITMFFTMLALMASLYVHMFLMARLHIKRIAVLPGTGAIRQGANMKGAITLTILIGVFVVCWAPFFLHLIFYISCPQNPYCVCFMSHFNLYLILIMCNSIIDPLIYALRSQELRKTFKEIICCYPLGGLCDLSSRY

Broadly, the IC50 is the concentration needed to halve the response being measured. Higher therefore signals lower potency. In the case of `COc1ccc(Nc2nc(-c3ccccc3)[n+](-c3ccc(OC)cc3)s2)cc1` [Compound 36], the IC50 in test [1] amounted to 79 nM. In test [2], this compound showed an activation at 0.05 µM of 16%.

On to `COc1ccccc1CNc1nc(-c2ccccc2)[n+](-c2ccccc2)s1` [Compound 52], for which the IC50 in test [1] turned out to be 1000 nM. The compound also came in with an activation at 0.05 µM in test [3] of 65%. The compound `COc1ccccc1-[n+]1sc(Nc2ccccc2)nc1-c1ccc(C)cc1` [Compound 65] registered an IC50 in test [1] of 114 nM. Still for that read-out and setting: for `COc1ccc(-[n+]2sc(Nc3ccccc3C)nc2-c2ccccc2)cc1` [Compound 39] the value was 146 nM. In test [1], `Cc1ccc(Nc2nc(-c3ccccc3)[n+](-c3ccccc3)s2)cc1` [Compound 25] yielded an IC50 of 57 nM. In test [2], the activation at 0.05 µM is 23%. Turning to `COc1ccc(CNc2nc(-c3ccccc3)[n+](-c3ccccc3)s2)cc1` [Compound 51], in test [1], the IC50 was 1000 nM. Moreover, the activation at 0.05 µM came out at 74% in test [3] and 28% in test [2].

`COc1ccccc1-[n+]1sc(Nc2ccccc2Cl)nc1-c1ccc(C)cc1` [Compound 71]: the IC50 in test [1] was determined as 234 nM. Consider `COc1ccc(Nc2nc(-c3ccccc3)[n+](-c3ccccc3)s2)cc1` [Compound 23], for which the IC50 in test [1] came out at 124 nM. Further, the activation at 0.05 µM came to 10% in test [3] and 20% in test [2]. Compound `COc1ccccc1-c1nc(Nc2ccc(Cl)cc2)s[n+]1-c1ccccc1OC` [Compound 79] showed an IC50 in test [1] of 216 nM.

`COc1ccccc1Nc1nc(-c2ccccc2)[n+](-c2ccccc2Cl)s1` [Compound 44]: the IC50 in test [1] was 89 nM. Further, the activation at 0.05 µM amounted to 43% in test [3] and 19% in test [2]. `COc1ccccc1-c1nc(Nc2cccnc2)s[n+]1-c1ccccc1OC` [Compound 81] showed an IC50 in test [1] of 672 nM. As to `COc1ccc(Nc2nc(-c3ccc(OC)cc3)[n+](-c3ccc(OC)cc3)s2)cc1` [Compound 58], in test [1], the “IC50 MC-4 (nM) (SPA)” value was “inactive”. For the same compound, the results for the activation at 0.05 µM in test [3] and in test [2] were 72% and 10%, respectively. On to `COc1ccc(-c2nc(Nc3ccc(C)cc3)s[n+]2-c2ccc(OC)cc2)cc1` [Compound 60], for which the “IC50 MC-4 (nM) (SPA)” value in test [1] is “inactive”. Also, the activation at 0.05 µM was determined as 66% in test [3] and 14% in test [2]. `COc1ccc(Nc2nc(-c3ccccc3)[n+](-c3ccccc3Cl)s2)cc1` [Compound 43] gave an IC50 in test [1] of 237 nM. Moreover, the figures for the activation at 0.05 µM in test [3] and in test [2] were 30% and 37%, respectively.

For the compound `COc1ccc(-c2nc(Nc3ccccc3C)s[n+]2-c2ccc(OC)cc2)cc1` [Compound 61], the “IC50 MC-4 (nM) (SPA)” value in test [1] is “inactive”. The activation at 0.05 µM in test [3] is 66%; in test [2] it was 17%. In the case of `COc1ccccc1-[n+]1sc(Nc2ccccc2C)nc1-c1ccc(C)cc1` [Compound 69], in test [1], the IC50 is 139 nM. As to `Clc1ccccc1Nc1nc(-c2ccccc2)[n+](-c2ccccc2Cl)s1` [Compound 48], the 50% inhibitory concentration (IC50) in test [1] was 444 nM. The compound further came in with an activation at 0.05 µM in test [2] of 19%.

Consider `Clc1ccc(CNc2nc(-c3ccccc3)[n+](-c3ccccc3)s2)cc1` [Compound 55], for which, in test [1], the IC50 worked out at 800 nM. The activation at 0.05 µM in test [3] turned out to be 19%. With `c1ccc(Nc2nc(-c3ccccc3)[n+](-c3ccccc3)s2)cc1` [Compound 22], the IC50 in test [1] worked out at 124 nM. This compound displayed an activation at 0.05 µM in test [2] of 30%. In the case of `COc1ccc(-c2nc(Nc3cccnc3)s[n+]2-c2ccc(OC)cc2)cc1` [Compound 64], the IC50 in test [1] turned out to be 1200 nM. Also, the figures for the activation at 0.05 µM in test [3] and in test [2] were 22% and 12%, respectively. On to `COc1ccc(-c2nc(Nc3ccc(Cl)cc3)s[n+]2-c2ccc(OC)cc2)cc1` [Compound 62], for which the “IC50 MC-4 (nM) (SPA)” value in test [1] is “inactive”. In addition, the activation at 0.05 µM in test [3] and in test [2] was 13% in each case.

Consider `COc1ccc(-[n+]2sc(Nc3ccc(C)cc3)nc2-c2ccccc2)cc1` [Compound 38], for which the IC50 in test [1] is 159 nM. For the compound `Clc1ccccc1CNc1nc(-c2ccccc2)[n+](-c2ccccc2)s1` [Compound 56], the half-maximal inhibitory concentration (IC50) in test [1] amounted to 3000 nM. For the same compound, in test [3], the activation at 0.05 µM is 33%. Compound `COc1ccccc1-[n+]1sc(Nc2cccnc2)nc1-c1ccc(C)cc1` [Compound 72] returned an IC50 in test [1] of 155 nM. In test [1], `Cc1ccc(CNc2nc(-c3ccccc3)[n+](-c3ccccc3)s2)cc1` [Compound 53] showed an IC50 of 1000 nM. In test [3], this compound returned an activation at 0.05 µM of 67%.

`COc1ccc(-c2nc(Nc3ccccc3OC)s[n+]2-c2ccc(OC)cc2)cc1` [Compound 59]: the “IC50 MC-4 (nM) (SPA)” value in test [1] was “inactive”. The results for the activation at 0.05 µM in test [3] and in test [2] were 61% and 21%, respectively. On to `COc1ccc(-[n+]2sc(Nc3ccccc3OC)nc2-c2ccccc2)cc1` [Compound 37], for which, in test [1], the IC50 stood at 72 nM. Besides, in test [2], the activation at 0.05 µM is 26%. Compound `Cc1ccc(Nc2nc(-c3ccccc3)[n+](-c3ccccc3Cl)s2)cc1` [Compound 45] yielded an IC50 in test [1] of 246 nM. Also, the activation at 0.05 µM in test [3] stood at 46%; in test [2] it was 25%. In test [1], `COc1ccccc1-[n+]1sc(Nc2ccc(Cl)cc2)nc1-c1ccccc1` [Compound 33] gave a concentration for half-maximal inhibition (IC50) of 91 nM. This compound also had an activation at 0.05 µM in test [2] of 21%. As to `COc1ccccc1-c1nc(Nc2ccc(C)cc2)s[n+]1-c1ccccc1OC` [Compound 77], the IC50 in test [1] came out at 4.4 nM. Still for that read-out and setting: next, `COc1ccc(Nc2nc(-c3ccccc3OC)[n+](-c3ccccc3OC)s2)cc1` [Compound 75]: 103 nM.

As to `Clc1ccccc1-[n+]1sc(Nc2ccccc2)nc1-c1ccccc1` [Compound 42], the IC50 in test [1] amounted to 482 nM. Moreover, the activation at 0.05 µM in test [3] turned out to be 26%. `COc1ccccc1-[n+]1sc(Nc2ccc(C)cc2)nc1-c1ccc(C)cc1` [Compound 68] had an IC50 in test [1] of 110 nM. In the case of `COc1ccc(-c2nc(Nc3ccccc3)s[n+]2-c2ccc(OC)cc2)cc1` [Compound 57], the “IC50 MC-4 (nM) (SPA)” value in test [1] is “inactive”. In addition, the activation at 0.05 µM in test [3] turned out to be 9%. In test [1], `COc1ccc(-[n+]2sc(Nc3ccc(Cl)cc3)nc2-c2ccccc2)cc1` [Compound 40] displayed an IC50 of 133 nM. The activation at 0.05 µM in test [3] was determined as 26%. In the case of `COc1ccccc1-[n+]1sc(Nc2cccnc2)nc1-c1ccccc1` [Compound 73], the IC50 in test [1] stood at 725 nM. The compound `COc1ccccc1-c1nc(Nc2ccccc2C)s[n+]1-c1ccccc1OC` [Compound 78] gave an IC50 in test [1] of 99 nM. As to `COc1ccc(-[n+]2sc(Nc3ccccc3)nc2-c2ccccc2)cc1` [Compound 35], in test [1], the IC50 turned out to be 100 nM. In addition, in test [2], the activation at 0.05 µM worked out at 28%.

In test [1], `COc1ccc(Nc2nc(-c3ccc(C)cc3)[n+](-c3ccccc3OC)s2)cc1` [Compound 66] yielded an IC50 of 120 nM. In other words, the sub-micromolar range. In the case of `COc1ccccc1-[n+]1sc(Nc2ccccc2)nc1-c1ccccc1` [Compound 28], in test [1], the IC50 is 68 nM. This compound came in with an activation at 0.05 µM in test [2] of 25%. `Cc1ccccc1CNc1nc(-c2ccccc2)[n+](-c2ccccc2)s1` [Compound 54]: the IC50 in test [1] came out at 800 nM. In test [3], this compound yielded an activation at 0.05 µM of 45%. Compound `COc1ccccc1Nc1nc(-c2ccccc2)[n+](-c2ccccc2OC)s1` [Compound 30] displayed an IC50 in test [1] of 103 nM.
